Assay results from patent publication US9216954B2, “Serine racemase inhibitor” (National University Corporation University of Toyama, priority 2012, dated 2015).

melting point [°C] | SMILES
165 to 166 | O=C(CNC(=O)COc1ccc(F)cc1)NCc1ccccc1 [MM-17, N-(Benzylcarbamoyl-methyl)-2-(4-fluoro-phenoxy)-acetamide]
143 to 144 | COc1ccc(OCC(=O)NCC(=O)Nc2ccc(OC)cc2C)cc1 [MM-18, N-[(4-Methoxy-2-methyl-phenylcarbamoyl)-methyl]-2-(4-methoxy-phenoxy)-acetamide]
115 to 116 | COc1cccc(OCC(=O)NCC(=O)Nc2ccc(OC)cc2C)c1 [MM-19, N-[(4-Methoxy-2-methyl-phenylcarbamoyl)-methyl]-2-(3-methoxy-phenoxy)-acetamide]
184 to 185 | O=C(COc1ccc(Cl)cc1)NCC(=O)Nc1c(F)cccc1F [MM-20, 2-(4-Chloro-phenoxy)-N-[(2,6-difluoro-phenylcarbamoyl)-methyl]acetamide]
164 to 165 | O=C(COc1ccc(Oc2ccccc2)cc1)NCC(=O)Nc1c(F)cccc1F [MM-21, N-[(2,6-Difluoro-phenylcarbamoyl)-methyl]-2-(4-phenoxy-phenoxy)-acetamide]
161 to 162 | Cc1cccc(OCC(=O)NCC(=O)Nc2c(F)cccc2F)c1 [MM-22, N-[(2,6-Difluoro-phenylcarbamoyl)-methyl]-2-m-tolyloxy-acetamide]
164 to 165 | COc1ccc(OCC(=O)NCC(=O)Nc2c(F)cccc2F)cc1 [MM-23, N-[(2,6-Difluoro-phenylcarbamoyl)-methyl]-2-(4-methoxy-phenoxy)-acetamide]
194 to 195 | O=C(COc1ccc(F)cc1)NCC(=O)Nc1c(F)cccc1F [MM-24, N-[(2,6-Difluoro-phenylcarbamoyl)-methyl]-2-(4-fluoro-phenoxy)-acetamide]
174 to 175 | O=C(COc1ccc(Br)cc1)NCC(=S)Nc1c(F)cccc1F [MM-25, 2-(4-Bromo-phenoxy)-N-[(2,6-difluoro-phenylthiocarbamoyl)-methyl]-acetamide]
160 to 161 | COc1ccc(OCC(=O)NCC(=S)Nc2c(F)cccc2F)cc1 [MM-26, N-[(2,6-Difluoro-phenylthiocarbamoyl)-methyl]-2-(4-methoxy-phenoxy)-acetamide]
174 to 175 | Cc1ccccc1CNC(=O)CNC(=O)COc1ccc(Br)cc1 [MM-27, 2-(4-Bromo-phenoxy)-N-[(2-methyl-benzylcarbamoyl)-methyl]-acetamide]

Continued, compound first:

SMILES | melting point [°C]
O=C(Cc1c(F)cccc1F)NNC(=S)NC(=O)Cc1ccccc1 [LW-28, N-{N′-[2-(2,6-Difluoro-phenyl)-acetyl]-hydrazinocarbothioyl}-2-phenyl-acetamide] | 174 to 175
O=C(Cc1cc(F)cc(F)c1)NNC(=S)NC(=O)Cc1ccccc1 [LW-29, N-{N′-[2-(3,5-Difluoro-phenyl)-acetyl]-hydrazinocarbothioyl}-2-phenyl-acetamide] | 178 to 179
O=C(CCc1ccccc1)NNC(=S)NC(=O)Cc1ccccc1 [LW-30, 2-Phenyl-N—[N′-(3-phenyl-propionyl)-hydrazinocarbothioyl]-acetamide] | 88 to 90
O=C(/C=C/c1cc(Br)cc(Br)c1)NC(=S)NNC(=O)CCc1ccccc1 [LW-31, 3-(3,5-Dibromo-phenyl)-N—[N′-(3-phenyl-propionyl)-hydrazinocarbothioyl]acrylamide] | 213 to 214
O=C(Cc1ccc(F)cc1)NNC(=S)NC(=O)Cc1ccc(F)cc1 [LW-32, 2-(4-Fluoro-phenyl)-N-{N′-[2-(4-fluoro-phenyl)-acetyl]-hydrazinocarbothioyl}-acetamide] | 178 to 179
O=C(Cc1ccc(F)cc1)NNC(=S)NC(=O)Cc1c(F)cccc1F [LW-33, 2-(2,6-Difluoro-phenyl)-N-{N′-[2-(4-fluoro-phenyl)-acetyl]-hydrazinocarbothioyl}-acetamide] | 186 to 187
O=C(Cc1ccc(F)cc1)NNC(=S)NC(=O)CC1CCCCC1 [LW-34, 2-Cyclohexyl-N-{N′-[2-(4-fluoro-phenyl)-acetyl]-hydrazinocarbothioyl}-acetamide] | 132 to 133
COc1ccc(NC(=O)CNC(=O)COc2ccccc2)c(C)c1 [MM-1, N-[(4-methoxy-2-methylphenylcarbamoyl)methyl]-2-phenoxyacetamide] | 165 to 166
COc1ccc(NC(=O)CNC(=O)COc2ccc(Cl)cc2)c(C)c1 [MM-2, 2-(4-Chloro-phenoxy)-N-[(4-methoxy-2-methyl-phenylcarbamoyl)-methyl]-acetamide] | 170 to 171
COc1ccc(NC(=O)CNC(=O)COc2ccc(Br)cc2)c(C)c1 [MM-3, 2-(4-Bromo-phenoxy)-N-[(4-methoxy-2-methyl-phenylcarbamoyl)-methyl]-acetamide] | 159 to 160
O=C(COc1ccc(Cl)cc1)NCC(=O)Nc1ccc(I)cc1 [MM-4, 2-(4-Chloro-phenoxy)-N-[(4-iodo-phenylcarbamoyl)-methyl]-acetamide] | 205 to 206
O=C(COc1ccc(Br)cc1)NCC(=O)Nc1ccc(I)cc1 [MM-5, 2-(4-Bromo-phenoxy)-N-[(4-iodo-phenylcarbamoyl)-methyl]acetamide] | 211 to 212
COc1ccc(NC(=O)CNC(=O)COc2ccc(F)cc2)c(C)c1 [MM-6, 2-(4-Fluoro-phenoxy)-N-[(4-methoxy-2-methyl-phenylcarbamoyl)-methyl]-acetamide] | 169 to 170
O=C(COc1ccc(F)cc1)NCC(=O)Nc1ccc(I)cc1 [MM-7, 2-(4-Fluoro-phenoxy)-N-[(4-iodo-phenylcarbamoyl)-methyl]-acetamide] | 190 to 191
O=C(COc1ccc(Br)cc1)NCC(=O)Nc1ccc(F)cc1 [MM-8, 2-(4-Bromo-phenoxy)-N-[(4-fluoro-phenylcarbamoyl)-methyl]-acetamide] | 213 to 214
O=C(COc1ccc(F)cc1)NCC(=O)Nc1ccc(F)cc1 [MM-9, 2-(4-Fluoro-phenoxy)-N-[(4-fluoro-phenylcarbamoyl)-methyl]-acetamide] | 202 to 203
O=C(COc1ccc(F)cc1)NCC(=O)Nc1ccc(Br)cc1 [MM-10, N-[(4-Bromo-phenylcarbamoyl)-methyl]-2-(4-fluoro-phenoxy)-acetamide] | 192 to 193
COc1ccc(NC(=O)CNC(=O)COc2ccc(Br)cc2)cc1 [MM-11, 2-(4-Bromo-phenoxy)-N-[(4-methoxy-phenylcarbamoyl)-methyl]acetamide] | 190 to 191
COc1ccc(NC(=O)CNC(=O)COc2ccc(F)cc2)cc1 [MM-12, 2-(4-Fluoro-phenoxy)-N-[(4-methoxy-phenylcarbamoyl)-methyl]-acetamide] | 185 to 186
O=C(COc1ccc(F)cc1)NCC(=O)NC1CCCCC1 [MM-14, N-Cyclohexylcarbamoylmethyl-2-(4-fluoro-phenoxy)-acetamide] | 184 to 185
O=C(COc1ccc(Br)cc1)NCC(=O)Nc1c(F)cccc1F [MM-15, 2-(4-Bromo-phenoxy)-N-[(2,6-difluoro-phenylcarbamoyl)-methyl]-acetamide] | 173 to 174
O=C(CNC(=O)COc1ccc(Br)cc1)NCc1ccccc1 [MM-16, N-(Benzylcarbamoyl-methyl)-2-(4-bromo-phenoxy)-acetamide] | 195 to 196
